One test concerns the target SHC2-PTB domain (Homo sapiens, UniProt P98077). The test is described as follows: FP saturation binding assay.
Test [1] has as its target PIK3R2-NC tandem SH2 domains (Homo sapiens, UniProt O00459). Kind of test: FP saturation binding assay.
A further test addresses T1, SH2D1B SH2 domain (Homo sapiens, UniProt O14796).
T1 sequence (O14796 5-101 limits assumed): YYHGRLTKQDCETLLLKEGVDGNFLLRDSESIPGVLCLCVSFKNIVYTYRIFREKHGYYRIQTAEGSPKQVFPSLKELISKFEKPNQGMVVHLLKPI
Kind of test: FP saturation binding assay.

The target of test [2] is SYK-NC tandem SH2 domains (Homo sapiens, UniProt P43405). Kind of test: FP saturation binding assay.
For test [3], the target named is T2, PTPN11-NC tandem SH2 domains (Homo sapiens, UniProt Q06124).
T2 sequence (Q06124 6-216 limits assumed): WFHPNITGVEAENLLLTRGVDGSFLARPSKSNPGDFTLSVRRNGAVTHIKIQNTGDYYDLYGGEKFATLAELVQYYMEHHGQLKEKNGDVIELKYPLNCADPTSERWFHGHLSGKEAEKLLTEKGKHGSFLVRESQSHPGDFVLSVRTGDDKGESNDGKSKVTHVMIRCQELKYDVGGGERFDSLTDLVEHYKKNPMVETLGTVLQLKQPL
Kind of test: FP saturation binding assay.

A further test concerns the target T3, SH2D1A SH2 domain (Homo sapiens, UniProt O60880).
T3 sequence (O60880 6-104 limits assumed): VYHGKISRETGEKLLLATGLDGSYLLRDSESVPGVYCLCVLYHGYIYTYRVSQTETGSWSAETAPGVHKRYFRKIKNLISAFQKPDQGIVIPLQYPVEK
Kind of test: FP saturation binding assay.

The target in another test is NCK2 SH2 domain (Homo sapiens, UniProt O43639). The test is described as follows: FP saturation binding assay.
Sequence of NCK2 SH2 domain (O43639 285-380 limits assumed): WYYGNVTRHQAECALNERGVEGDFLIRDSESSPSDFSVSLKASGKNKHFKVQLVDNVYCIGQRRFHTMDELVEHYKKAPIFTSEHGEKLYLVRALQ
The next test concerns the target SH2D2A SH2 domain (Homo sapiens, UniProt Q9NP31). Kind of test: FP saturation binding assay.
Another test concerns the target T4, GRAP2 SH2 domain (Homo sapiens, UniProt O75791).
T4 sequence (O75791 58-149 limits assumed): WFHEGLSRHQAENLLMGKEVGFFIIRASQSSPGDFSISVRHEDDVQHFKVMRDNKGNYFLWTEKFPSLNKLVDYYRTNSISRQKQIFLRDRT
The test is described as follows: FP saturation binding assay.

A further test concerns the target T5, PLCG1-C SH2 domain (Homo sapiens, UniProt P19174).
T5 construct: The 6X His-tagged SH2 domain proteins used in the assay, PLCG1-C, SHC4, VAV2; thioredoxin; made in house; host or cells: E. coli BL21(DE3)pLysS
T5 sequence (P19174 668-756 limits assumed): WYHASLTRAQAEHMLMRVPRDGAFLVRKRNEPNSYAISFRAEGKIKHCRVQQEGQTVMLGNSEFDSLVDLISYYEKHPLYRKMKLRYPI
The test is described as follows: biochemical. Format: binding. The following applies: protein PLCG1-C; high-confidence ErbB interactions; mean of replicate hits.

Another test addresses T6, PIK3R1-N SH2 domain (Homo sapiens, UniProt P27986).
T6 construct: thioredoxin; made in house; host or cells: E. coli BL21(DE3)pLysS
Kind of test: biochemical. Format: binding. The following applies: protein PIK3R1-N; high-confidence ErbB interactions; mean of replicate hits.

The target in the next test is T7, PTK6 SH2 domain (Homo sapiens, UniProt Q13882).
T7 construct: from the PTK6 SH2 domain; 6X His; thioredoxin; made in house; host or cells: E. coli BL21(DE3)pLysS
T7 sequence (Q13882 78-170 limits assumed): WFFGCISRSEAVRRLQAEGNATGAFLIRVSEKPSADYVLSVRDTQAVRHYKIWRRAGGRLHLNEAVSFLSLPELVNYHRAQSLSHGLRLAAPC
Kind of test: FP saturation binding assay. The settings on record: protein PTK6; high-confidence ErbB interactions; mean of replicate hits. The essentials:
(§1)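 Rhodamine-labeled peptides (10 nM final) were titrated with 12 SH2 domain concentrations (0.002–10 µM) in 20 mM HEPES, 100 mM KCl, 0.1% Tween-20, 5 mM DTT, pH 7.8. After 20 min at room temperature in the dark, FP (ex 530/em 555 nm) was read. KDs came from nonlinear least-squares fits.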

The target in test [4] is T8, PIK3R3-NC tandem SH2 domains (Homo sapiens, UniProt Q92569).
T8 construct: the tandem protein was included in our analysis with all internal amino acids linking the domains; 6X His; thioredoxin; made in house; host or cells: E. coli BL21(DE3)pLysS
The test is described as follows: FP saturation binding assay. The settings on record: protein PIK3R3-NC; high-confidence ErbB interactions; mean of replicate hits. An outline of the steps: as §1

A further test addresses T9, PIK3R3-N SH2 domain (Homo sapiens, UniProt Q92569).
T9 construct: 6X His; thioredoxin; made in house; host or cells: E. coli BL21(DE3)pLysS
The test is described as follows: FP saturation binding assay. The following applies: protein PIK3R3-N; high-confidence ErbB interactions; mean of replicate hits. An outline of the steps: as §1

In a further test the target is T10, YES1 SH2 domain (Homo sapiens, UniProt P07947).
T10 construct: 6X His; thioredoxin; made in house; host or cells: BL21(DE3)pLysS E. coli
T10 sequence (P07947 158-255 limits assumed): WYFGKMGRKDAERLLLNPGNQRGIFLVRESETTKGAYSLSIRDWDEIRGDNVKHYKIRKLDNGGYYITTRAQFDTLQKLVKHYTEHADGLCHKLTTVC
The test is described as follows: FP saturation binding assay. The following applies: protein YES1; high-confidence ErbB interactions; mean of replicate hits. An outline of the steps:
as §1

For a further test, the target named is T11, SRC SH2 domain (Homo sapiens, UniProt P12931).
T11 construct: between the c-Src SH2 domain and ErbB1 in our FP assay; 6X His; thioredoxin; made in house; host or cells: E. coli BL21(DE3)pLysS
T11 sequence (P12931 151-248 limits assumed): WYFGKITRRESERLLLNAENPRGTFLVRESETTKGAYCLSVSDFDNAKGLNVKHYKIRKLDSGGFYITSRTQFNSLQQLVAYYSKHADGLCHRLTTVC
The test is described as follows: FP saturation binding assay. The following applies: protein SRC; high-confidence ErbB interactions; mean of replicate hits. An outline of the steps: as §1

For another test, the target named is SH2 and PTB domains. Kind of test: In-house protein microarrays (with or without 5 mM DTT), protein named per line. Format: binding, human. The following applies: in-house protein microarray, protein named in c0 of the line, sheet ErbB4 pY733 (18-mer). The procedure:
300 pL of purified recombinant proteins and a thioredoxin tag control were spotted at a concentration of ∼40 µM in duplicate onto aldehyde-coated microscope slides (Erie Scientific Company, Portsmouth, NH) using a Nano-Plotter (NP) 2.1/E noncontact microarrayer (GeSiM, Munich, Germany). 16 identical microarrays per slide were printed in a 2×8 (column by row) format with distances of 9 mm between individual arrays; each array consisted of a 14×14 configuration of spots 400 µm apart. Following printing at a constant humidity level of 50%, slides were desiccated overnight and stored at −80°C. For peptide probing, array slides were transferred to 96-well microplates (TeleChem International, Inc., Sunnyvale, CA) and sandwiched with silicone gaskets. Prior to peptide addition, aldehyde sites were quenched with buffer B (20 mM HEPES, 100 mM KCl, 0.1% Tween-20, 5 mM DTT, pH 7.8) containing 1% bovine serum albumin (BSA) (w/v) for one hour at room temperature; moderate agitation was applied in a plate shaker (IKA, Germany) to displace glycerol from the surface area of protein sample spots. […] The arrays were subsequently washed once with 300 µL of buffer B and once with 300 µL of ddH2O. Residual water was removed by centrifugation; slides were stored under desiccation in the dark until analysis.
Microarray slides were scanned at a resolution of 10 µm using a GenePix 4000B microarray scanner and analyzed using GenePix Pro v6.0 software (Molecular Devices, Sunnyvale, CA). To independently visualize protein spots irrespective of peptide binding, samples were printed simultaneously with 400 nM of Cyanine-5 (Cy5) labeled bovine serum albumin (BSA). […] Following spot layout identification via Cy5 labeled BSA, the mean fluorescence intensity of rhodamine for duplicate protein spots was quantified and normalized by subtracting the corresponding mean fluorescence intensity of thioredoxin. Normalized fluorescence values were then imported into MATLAB and KDs determined as previously described.

Several values for one entry are separate records, joined by “and”; a condition that tells them apart may be missing. Identical values can stand only once. Residues, ends and D or L forms follow the SMILES beside them.

Sequence of PIK3R2-NC tandem SH2 domains (O00459 330-716 limits assumed): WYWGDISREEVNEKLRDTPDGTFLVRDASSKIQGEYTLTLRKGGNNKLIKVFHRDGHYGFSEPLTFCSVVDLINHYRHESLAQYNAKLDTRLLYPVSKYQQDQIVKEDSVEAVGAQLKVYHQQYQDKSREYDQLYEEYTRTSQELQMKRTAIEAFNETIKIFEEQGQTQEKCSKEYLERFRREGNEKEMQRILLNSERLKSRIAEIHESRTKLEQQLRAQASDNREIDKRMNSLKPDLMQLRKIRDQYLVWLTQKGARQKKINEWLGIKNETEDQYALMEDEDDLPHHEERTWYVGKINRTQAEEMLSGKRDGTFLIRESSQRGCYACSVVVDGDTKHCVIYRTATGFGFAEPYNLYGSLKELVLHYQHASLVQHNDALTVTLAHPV
Sequence of SHC2-PTB domain (P98077 147-329 limits assumed): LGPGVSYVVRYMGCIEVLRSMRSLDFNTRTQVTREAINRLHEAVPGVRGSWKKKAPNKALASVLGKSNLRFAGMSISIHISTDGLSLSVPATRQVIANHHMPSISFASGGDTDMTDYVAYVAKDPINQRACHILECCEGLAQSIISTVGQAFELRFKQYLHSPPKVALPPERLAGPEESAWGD
Sequence of SH2D2A SH2 domain (Q9NP31 95-186 limits assumed): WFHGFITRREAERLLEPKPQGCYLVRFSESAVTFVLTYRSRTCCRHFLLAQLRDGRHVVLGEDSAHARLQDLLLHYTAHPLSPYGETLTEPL
T6 sequence (P27986 333-428 limits assumed): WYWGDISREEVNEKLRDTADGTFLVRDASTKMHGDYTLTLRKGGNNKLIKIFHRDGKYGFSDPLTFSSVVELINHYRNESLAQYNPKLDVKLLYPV

Consider `CC(C)C[C@H](NC(=O)[C@H](CCC(=O)O)NC(=O)[C@H](Cc1c[nH]c2ccccc12)NC(=O)[C@@H](NC(=O)[C@@H](NC(=O)[C@@H](NC(=O)CNC(=O)[C@H](Cc1ccc(O)cc1)NC(=O)[C@H](CO)NC(=O)[C@H](Cc1c[nH]c2ccccc12)NC(=O)[C@@H](NC(=O)[C@@H](N)CC(=O)O)C(C)C)C(C)C)[C@@H](C)O)C(C)C)C(=O)N[C@@H](CC(=O)O)C(=O)O` [ErbB1 Y900 (non-phospho)], for which the values for the dissociation constant (Kd) (at SHC2-PTB domain; in test [1]) were 5420 nM and 6930 nM, respectively.
With `CC[C@H](C)[C@H](NC(=O)[C@H](Cc1c[nH]c2ccccc12)NC(=O)[C@H](CC(C)C)NC(=O)CNC(=O)[C@H](CCCCN)NC(=O)[C@H](Cc1ccc(OP(=O)(O)O)cc1)NC(=O)[C@@H](NC(=O)[C@@H](NC(=O)CNC(=O)[C@@H](N)Cc1ccccc1)[C@@H](C)O)C(C)C)C(=O)N1CCC[C@H]1C(=O)N[C@@H](CCC(=O)O)C(=O)N[C@@H](CC(=O)O)C(=O)O` [ErbB1 pY727] (HELM PEPTIDE1{F.G.T.V.[O=C([C@H](Cc1ccc(OP(=O)(O)O)cc1)N[*:1])[*:2]].K.G.L.W.I.P.E.D}$$$$V2.0), the Kd – broadly, the concentration at which binding is half-saturated – at SH2D1B SH2 domain was determined as 240 nM; in [2] it was 11500 nM; in test [3], 3150 nM; at SH2D1A SH2 domain, 2710 nM. Further, on SH2D1B SH2 domain (FP saturation assay), the “KD range of recruitment of SH2D1B” value is given as “in the nM KD range”. The “KD range of recruitment of SH2D1A (SHD1A [sic])” value at SH2D1A SH2 domain (FP saturation assay) was “in the nM KD range”.
At NCK2 SH2 domain, `CC(C)C[C@H](NC(=O)[C@H](Cc1ccc(OP(=O)(O)O)cc1)NC(=O)[C@H](CCC(=O)O)NC(=O)[C@@H]1CCCN1C(=O)[C@H](CC(N)=O)NC(=O)[C@@H](N)CCC(=O)O)C(=O)N[C@H](C(=O)N1CCC[C@H]1C(=O)N[C@@H](CCC(N)=O)C(=O)NCC(=O)NCC(=O)N[C@@H](C)C(=O)N[C@@H](CC(=O)O)C(=O)O)[C@@H](C)O` [ErbB2 1196 13-mer] returned a Kd of 3720 nM.
With `CC(C)C[C@H](NC(=O)[C@H](Cc1ccc(O)cc1)NC(=O)[C@H](CC(C)C)NC(=O)[C@@H]1CCCN1C(=O)[C@H](CCC(=O)O)NC(=O)[C@H](CC(N)=O)NC(=O)[C@@H](NC(=O)[C@H](Cc1ccc(OP(=O)(O)O)cc1)NC(=O)[C@H](CCC(=O)O)NC(=O)[C@H](CC(=O)O)NC(=O)[C@H](CCC(=O)O)NC(=O)[C@H](C)NC(=O)[C@H](CCCCN)NC(=O)[C@@H]1CCCN1C(=O)[C@@H]1CCCN1C(=O)CNC(=O)[C@@H](N)CC(N)=O)C(C)C)C(=O)N[C@@H](CC(=O)O)C(=O)O` [ErbB4 1202 18-mer] (HELM PEPTIDE1{N.G.P.P.K.A.E.D.E.[O=C([C@H](Cc1ccc(OP(=O)(O)O)cc1)N[*:1])[*:2]].V.N.E.P.L.Y.L.D}$$$$V2.0), the Kd on SH2D2A SH2 domain was 6000 nM; on GRAP2 SH2 domain it was 2290 nM; on PLCG1-C SH2 domain it was 1920 nM; at PIK3R1-N SH2 domain it was 5390 nM; in test [1], 1840 nM; on PTK6 SH2 domain it was 2040 nM. Also, the Kd was found to be 1210 nM in test [4], 2410 nM on PIK3R3-N SH2 domain, 8400 nM on YES1 SH2 domain and 2300 nM at SRC SH2 domain.
For the compound “LGSGAFGTVpYKGIWVPEd [ErbB4 pY733 (18-mer), N-terminally rhodamine-labeled 18-mer phosphopeptide]”, the Kd on SH2 and PTB domains (PM Assay Replicate # 39307, Array Fabrication # 39320) is 800 nM and 400 nM; at SH2 and PTB domains (PM Assay Replicate # 39334, Array Fabrication # 39329), 790 nM.
